Patent US20240385182A1, “MASKED FLUOROGENIC LIPID COMPOUNDS, LIPID PARTICLES COMPRISING THE SAME, AND METHODS OF USE THEREOF” (Rutgers, The State University of New Jersey, priority 2023, published 2024)

What was measured:
[1] = Confocal imaging of H2S-sensing giant vesicles; conditions: GVs with POPC, POPG, cholesterol; H2S (500 μM) over 1 hour
Text: FIGS. 14A-14B: giant vesicles (GVs) that can sense reductive (FIG. 14A) or oxidative (FIG. 14B) environments. Confocal images acquired for H2S-sensing GV at 405/475 nm (ex/em) (FIG. 14A) and H2O2 sensing GV at 490/520 nm (ex/em) (FIG. 14B). Lipid compositions of GVs: POPC, POPG, cholesterol, and DPPC-TC-H2S (48:21:30:1 molar ratio; FIG. 14A); and POPC, POPG, cholesterol, and DPPC-TF-H2O2 (48.5:21:30:0.5; FIG. 14B). To label vesicle membranes, Liss-Rhod PE dye (563/580 nm) was introduced to the lipid mixture at an insignificant molar ratio (0.1 mol %). Concentrations of RSS and ROS were set to 500 and 100 μM, respectively. Scale bar=5 μm.
The redox sensing abilities of giant vesicles (GVs) comprising DPPC-TC-H2S or DPPC-TF-H2O2 were investigated. In most biomimetic systems that rely on compartmentalization, physical membrane boundaries are comprised of phospholipids and cholesterol. These lipid self-assemblies have dimensional properties (1-30 μm in diameter) relevant to those of a mammalian plasma membrane (10-100 μm), display physical characteristics feasible for confocal fluorescence imaging, and are conveniently utilized for bottom-up construction of biomimetic protocells. […]
The vesicle size distribution was analyzed by dynamic light scattering (DLS), confirming the presence of GVs. […]

[2] = Photophysical characterization of probes and uncaged forms (relative fluorescence quantum yield, extinction coefficient, brightness); assay type: physicochemical; conditions: for Relative Brightness: Table 3; for Brightness: in M⁻¹·cm⁻¹ (unit assumed)
Procedure, shortened: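 Relative fluorescence quantum yields of caged probes and uncaged forms, referenced to coumarin 343 (ΦF 0.63 in ethanol) for triazole-coumarins and fluorescein (ΦF 0.79 in ethanol) for triazole-fluoresceins. Measured in Tris 50 mM, pH 7.5; coumarin largely aryloxide (TEG-TC pKa 7.1±0.1 by UV-Vis).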

[3] = Specificity of TEG-TF-H2O2 against other ROS; conditions: ·OH 100 μM, 2 hours
Procedure: (§1) The redox-specificities of the non-amphiphilic probes, TEG-TC-H2S or TEG-TF-H2O2, were assessed by subjecting them to various RSS or ROS (FIGS. 13A-13B). Change in fluorescence intensity following excitation of each sample containing the respective probe was measured over 120 minutes of incubation and presented based on the signal-to-background ratio F/F0, where F and F0 are defined as the fluorescence with and without the redox species. The F/F0 of the untreated samples were set to 1 for comparisons. […] Samples containing TEG-TF-H2O2 and treated with 100 μM H2O2 presented a steady fluorescence enhancement within 2 hours, resulting in 4.4-fold higher fluorescence than those of the untreated samples (FIG. 13B).
(§2) The specificity of TEG-TC-H2S toward H2S was evaluated by comparing its reactivity against different RSS, cysteine (Cys), glutathione (GSH), sulfite (SO3^2−), and thiosulfate (S2O3^2−). At 1 mM initial concentration and a total incubation time of 2 hours, these sulfur species induced an increase in coumarin fluorescence by less than 25% compared to the untreated sample (FIG. 13A). […] The specificity of TEG-TF-H2O2 toward H2O2 was also assessed, by incubating the samples containing TEG-TF-H2O2 with 100 μM either hydroxyl radical (·OH), nitric oxide (NO), or superoxide radical (O2·^−) for 2 hours. […]

[4] = Fluorescence activation and LoD of TEG-TF-H2O2 with H2O2 in Tris buffer
Procedure: FIGS. 13A-13D: specificity (FIGS. 13A-13B) and limit of detection (LoD) (FIGS. 13C-13D) of TEG-TC-H2S and TEG-TF-H2O2. LoD measurements for the probes TEG-TC-H2S (390/475 nm) and TEG-TF-H2O2 (485/525 nm) were performed in Tris buffer (50 mM, pH 7.5). Error bars represent the standard deviation; n=3. Single-tailed Student's t test: *, P<0.05; **, P<0.01; ***, P<0.001; ****, P<0.0001.
as §1
as §2, with “hours. Among these three reactive oxygen species, ·OH induced the highest fluorescence increase (2.2-fold), which was lower than that for H2O2 (4.4-fold). The relatively low yet observable reactivity of ·OH may have been due, in large part, to the residual unreacted H2O2 used for generating ·OH.” for “hours.”

Row | Emmax [2] [nm] | Exmax [2] [nm] | Ext. Coeff. [2] [M⁻¹ cm⁻¹] | Relative Brightness ([2]; brightness compared to that of DPPC-TC-H2S) | Brightness [2] | Quantum Yield (relative fluorescence quantum yield ΦFrel) ([2]; standard coumarin 343) | Relative Brightness ([2]; brightness compared to that of DPPC-TF-H2O2) | Quantum Yield (relative fluorescence quantum yield ΦFrel) ([2]; standard fluorescein) | fluorescence increase of the untreated sample compared to the fluorescence at 1 min (possible hydrolysis) ([4]; no redox species, pH 7.5, 120 minutes) [%] | SMILES | GV fluorescence [1] | fluorescence increase [3] [fold] | fluorescence compared to untreated samples ([4]; 100 μM H2O2, 2 hours, Tris pH 7.5) [fold] | LoD ([4]; minimum H2O2 concentration at which F is statistically higher than F0, 485/525 nm, Tris 50 mM pH 7.5) [µM]
1 | 473.5 | 396.5 | 24111 | 1.0 | 72 | 0.03 |  |  |  | CCCCCCCCCCCCCCCC(=O)OCC(COP(=O)([O-])OCC[N+](C)(C)Cc1cn(-c2cc3ccc(OCc4ccc(N=[N+]=[N-])cc4)cc3oc2=O)nn1)OC(=O)CCCCCCCCCCCCCCC (racemic) [DPPC-TC-H2S] | significant increase in fluorescence |  |  | 
2 | 526.0 | 492.0 | 13429 |  | 537 |  | 2.5 | 0.04 | 277 | CC1(C)OB(c2ccc(COC(=O)Oc3ccc4c(c3)Oc3cc(OC(=O)OCc5ccc(B6OC(C)(C)C(C)(C)O6)cc5)ccc3C43OC(=O)c4cc(-n5cc(COCCOCCOCCO)nn5)ccc43)cc2)OC1(C)C [TEG-TF-H2O2] |  | 2.2 | 4.4 | 10
